Measurements as given in ChEMBL document CHEMBL3045306, “Ultrasound-promoted synthesis, biological evaluation and molecular docking of novel 7-(2-chloroquinolin-4-yloxy)-4-methyl-2H-chromen-2-one derivatives” (2013).
In brackets after ≈: the same amount, converted by molar mass.

How the values were obtained:
Type in all cases: functional
Pseudomonas aeruginosa = experiment: Antibacterial activity against Pseudomonas aeruginosa assessed as growth inhibition
[1] = system: Radical scavenging activity; experiment: Antioxidant activity assessed as inhibition of DPPH radical formation at 100 ug after 30 mis UV-Vis spectrophotometric analysis
[2] = system: Radical scavenging activity; experiment: Antioxidant activity assessed as inhibition of DPPH radical formation at 1000 ug after 30 mis UV-Vis spectrophotometric analysis
[3] = system: Radical scavenging activity; experiment: Antioxidant activity assessed as inhibition of DPPH radical formation at 500 ug after 30 mis UV-Vis spectrophotometric analysis
[4] = system: Radical scavenging activity; experiment: Antioxidant activity assessed as inhibition of DPPH radical formation at 50 ug after 30 mis UV-Vis spectrophotometric analysis
Meloidogyne = experiment: Nematicidal activity against Meloidogyne litoralis assessed as growth inhibition
Bacillus subtilis = experiment: Antibacterial activity against Bacillus subtilis assessed as growth inhibition
Staphylococcus aureus = experiment: Antibacterial activity against Staphylococcus aureus assessed as growth inhibition
Escherichia coli = experiment: Antibacterial activity against Escherichia coli assessed as growth inhibition

Row | Structure (SMILES) | MIC (Pseudomonas aeruginosa) [µg/mL] | inhibition [1] [%] | inhibition [2] [%] | inhibition [3] [%] | inhibition [4] [%] | MIC (Meloidogyne) [µg/mL] | MIC (Bacillus subtilis) [µg/mL] | MIC (Staphylococcus aureus) [µg/mL] | MIC (Escherichia coli) [µg/mL]
1 | Cc1cc(=O)oc2cc(Oc3cc(Cl)nc4ccc(Br)cc34)ccc12 | 50 (≈ 120 µM) | 26 | 76 | 54 | 24 | 6.25 (≈ 15 µM) |  |  | 
2 | CN[C@@H]1[C@H](O[C@H]2[C@H](O[C@H]3[C@H](O)[C@@H](O)[C@H](N=C(N)N)[C@@H](O)[C@@H]3N=C(N)N)O[C@@H](C)[C@]2(O)C=O)O[C@@H](CO)[C@H](O)[C@H]1O [STREPTOMYCIN] | 12.5 (≈ 21.5 µM) |  |  |  |  | 6.25 (≈ 10.7 µM) | 12.5 (≈ 21.5 µM) | 25 (≈ 43 µM) | 6.25 (≈ 10.7 µM)
3 | Cc1cc(=O)oc2cc(Oc3cc(Cl)nc4ccccc34)ccc12 | 12.5 (≈ 37 µM) | 23 | 78 | 53 | 21 | 100 (≈ 296 µM) |  | 50 (≈ 148 µM) | 100 (≈ 296 µM)
4 | Cc1cc(C(C)(C)C)c(O)c(C(C)(C)C)c1 |  | 94 | 98 | 96 | 93 |  |  |  | 
5 | COc1cccc2c(Oc3ccc4c(C)cc(=O)oc4c3)cc(Cl)nc12 | 6.25 (≈ 17 µM) | 11 | 69 | 38 | 8 |  | 100 (≈ 272 µM) |  | 6.25 (≈ 17 µM)
6 | Cc1cc(=O)oc2cc(Oc3cc(Cl)nc4c3ccc3ccccc34)ccc12 | 6.25 (≈ 16.1 µM) | 15 | 67 | 40 | 14 |  |  | 50 (≈ 129 µM) | 6.25 (≈ 16.1 µM)
7 | Cc1ccc2nc(Cl)cc(Oc3ccc4c(C)cc(=O)oc4c3)c2c1 | 100 (≈ 284 µM) | 20 | 69 | 57 | 19 |  |  | 12.5 (≈ 35.5 µM) | 12.5 (≈ 35.5 µM)
8 | Cc1ccc2c(Oc3ccc4c(C)cc(=O)oc4c3)cc(Cl)nc2c1 | 12.5 (≈ 35.5 µM) | 11 | 65 | 35 | 10 |  |  |  | 
9 | Cc1cc(=O)oc2cc(Oc3cc(Cl)nc4c(C)cccc34)ccc12 |  | 14 | 68 | 45 | 12 | 100 (≈ 284 µM) |  |  | 6.25 (≈ 17.8 µM)
